Test results from PubChem BioAssay AID330 (DTP/NCI, 2004).
Where “and” joins values, the source holds several entries; their conditions need not be identical. Equal entries are not always repeated. Toxic doses and inconclusive results are not listed. Rule for the calls: active = survival T/C of 150% or more; inactive = T/C below 125% in these data.

Test system: P388 leukemia ip, CD2F1 mice, survival T/C
Test: NCI In Vivo Anticancer Drug Screen. Data for tumor model P388 Leukemia (intraperitoneal) in CD2F1 (CDF1) mice
Conditions: endpoint: median survival time, higher = longer survival
Method in brief: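 Mice carrying the transplanted tumor received test compound or vehicle. Survival was recorded in each group, and the value is the treated-group measurement divided by that of the vehicle-treated control group.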

[1] = dose: 50.0 mg/kg/injection, schedule: Q01DX009 (ip), vehicle: saline
[2] = dose: 100.0 mg/kg/injection, schedule: Q01DX009 (ip), vehicle: saline
[3] = dose: 200.0 mg/kg/injection, schedule: Q01DX009 (ip), vehicle: saline
[4] = dose: 6.25 mg/kg/injection, schedule: Q01DX009 (ip), vehicle: saline with Tween-80
[5] = dose: 12.5 mg/kg/injection, schedule: Q01DX009 (ip), vehicle: saline with Tween-80
[6] = dose: 25.0 mg/kg/injection, schedule: Q01DX009 (ip), vehicle: saline with Tween-80
[7] = dose: 50.0 mg/kg/injection, schedule: Q01DX009 (ip), vehicle: Klucel (hydroxypropylcellulose) (HPC)
[8] = dose: 100.0 mg/kg/injection, schedule: Q01DX009 (ip), vehicle: Klucel (hydroxypropylcellulose) (HPC)
[9] = dose: 200.0 mg/kg/injection, schedule: Q01DX009 (ip), vehicle: Klucel (hydroxypropylcellulose) (HPC)
[10] = dose: 50.0 mg/kg/injection, schedule: Q01DX009 (ip), vehicle: saline with Tween-80
[11] = dose: 100.0 mg/kg/injection, schedule: Q01DX001 (ip), vehicle: saline with Tween-80
[12] = dose: 200.0 mg/kg/injection, schedule: Q01DX001 (ip), vehicle: saline with Tween-80
[13] = dose: 400.0 mg/kg/injection, schedule: Q01DX009 (ip), vehicle: saline with Tween-80

Measured: T/C

O=S(=O)(O)O.[W]
inactive: dose: 0.38 mg/kg/injection, schedule: Q01DX009 (ip), vehicle: saline with Tween-80 91 % of control | dose: 0.38 mg/kg/injection, schedule: Q01DX009 (ip), vehicle: saline 99 % of control | dose: 0.75 mg/kg/injection, schedule: Q01DX009 (ip), vehicle: saline 89 % of control and 96 % of control | dose: 1.5 mg/kg/injection, schedule: Q01DX009 (ip), vehicle: saline with Tween-80 100 % of control | dose: 1.5 mg/kg/injection, schedule: Q01DX009 (ip), vehicle: saline 98 % of control and 86 % of control | dose: 3.0 mg/kg/injection, schedule: Q01DX009 (ip), vehicle: saline with Tween-80 87 % of control | dose: 3.0 mg/kg/injection, schedule: Q01DX009 (ip), vehicle: saline 89 % of control and 94 % of control

NNc1ncnc2nc[nH]c12
inactive: dose: 6.25 mg/kg/injection, schedule: Q01DX009 (ip), vehicle: saline sonified 95 % of control | dose: 6.25 mg/kg/injection, schedule: Q01DX009 (ip), vehicle: saline 100 % of control | dose: 6.25 mg/kg/injection, schedule: Q01DX009 (ip), vehicle: suspension in saline 111 % of control | dose: 12.5 mg/kg/injection, schedule: Q01DX009 (ip), vehicle: saline sonified 100 % of control | dose: 12.5 mg/kg/injection, schedule: Q01DX009 (ip), vehicle: saline 100 % of control | dose: 12.5 mg/kg/injection, schedule: Q01DX009 (ip), vehicle: suspension in saline 100 % of control | dose: 25.0 mg/kg/injection, schedule: Q01DX009 (ip), vehicle: saline sonified 120 % of control | dose: 25.0 mg/kg/injection, schedule: Q01DX009 (ip), vehicle: saline 106 % of control | dose: 25.0 mg/kg/injection, schedule: Q01DX009 (ip), vehicle: suspension in saline 103 % of control | dose: 50.0 mg/kg/injection, schedule: Q01DX009 (ip), vehicle: suspension in saline 119 % of control | dose: 100.0 mg/kg/injection, schedule: Q04DX003 (ip), vehicle: saline sonified 109 % of control | dose: 200.0 mg/kg/injection, schedule: Q04DX003 (ip), vehicle: saline sonified 90 % of control

CC1C2C=CC1C=C2 (configuration not stated)
inactive: [1] 98 % of control | [2] 91 % of control | [3] 98 % of control

CCCC1CC[N-]CC1.CCCC1CC[N-]CC1.[Br][Pt+2]([Br])([Br])[Br]
inactive: dose: 1.56 mg/kg/injection, schedule: Q01DX009 (ip), vehicle: saline with Tween-80 94 % of control | dose: 3.13 mg/kg/injection, schedule: Q01DX009 (ip), vehicle: saline with Tween-80 87 % of control | [4] 95 % of control | [5] 98 % of control | [6] 123 % of control

CC(=O)Nc1ccc(C(=O)C(C)Cl)cc1 (configuration not stated)
inactive: [7] 100 % of control and 104 % of control and 105 % of control | [8] 105 % of control and 117 % of control and 89 % of control | [9] 99 % of control and 117 % of control and 123 % of control | dose: 400.0 mg/kg/injection, schedule: Q01DX009 (ip), vehicle: Klucel (hydroxypropylcellulose) (HPC) 105 % of control

Cn1c(CC(=O)O)csc1=S
inactive: dose: 50.0 mg/kg/injection, schedule: Q01DX005 (ip), vehicle: saline with Tween-80 93 % of control | dose: 100.0 mg/kg/injection, schedule: Q01DX005 (ip), vehicle: saline with Tween-80 94 % of control | dose: 200.0 mg/kg/injection, schedule: Q01DX005 (ip), vehicle: saline with Tween-80 89 % of control

O=[N+]([O-])c1ccc(N/N=C\C2OC3O[C@@H](C(Cl)(Cl)Cl)OC3C2O)c([N+](=O)[O-])c1 (some centres not stated)
inactive: dose: 200.0 mg/kg/injection, schedule: Q04DX002 (ip), vehicle: saline with Tween-80 87 % of control

[CH3][Sn]([CH3])([O]S(=O)c1ccc(Cl)cc1)[O]S(=O)c1ccc(Cl)cc1 (configuration not stated)
inactive: dose: 100.0 mg/kg/injection, schedule: Q01DX001 (ip), vehicle: Klucel (hydroxypropylcellulose) (HPC) 114 % of control | dose: 200.0 mg/kg/injection, schedule: Q01DX001 (ip), vehicle: Klucel (hydroxypropylcellulose) (HPC) 105 % of control

CC(C(=O)O)c1ccc2sc(-c3ccccc3)nc2c1 (configuration not stated)
inactive: [7] 102 % of control | [8] 100 % of control | [9] 98 % of control

O=C1CSC(c2ccc(Cl)cc2)N1c1nncs1 (configuration not stated)
inactive: dose: 60.0 mg/kg/injection, schedule: Q01DX005 (ip), vehicle: saline with Tween-80 101 % of control | dose: 120.0 mg/kg/injection, schedule: Q01DX005 (ip), vehicle: saline with Tween-80 102 % of control | dose: 240.0 mg/kg/injection, schedule: Q01DX005 (ip), vehicle: saline with Tween-80 108 % of control

NC(=S)Nc1cccc2ccccc12
inactive: [4] 100 % of control and 112 % of control | [5] 113 % of control and 94 % of control | [6] 104 % of control and 91 % of control | [10] 94 % of control

O=C(CCSc1ncnc2nc[nH]c12)c1ccccc1
inactive: [1] 94 % of control | [2] 92 % of control | [3] 86 % of control

O=C(NC1COB(c2cccc([N+](=O)[O-])c2)OC1c1ccc([N+](=O)[O-])cc1)C(Cl)Cl (configuration not stated)
inactive: dose: 60.0 mg/kg/injection, schedule: Q01DX005 (ip), vehicle: Klucel (hydroxypropylcellulose) (HPC) 98 % of control | dose: 120.0 mg/kg/injection, schedule: Q01DX005 (ip), vehicle: Klucel (hydroxypropylcellulose) (HPC) 98 % of control | dose: 240.0 mg/kg/injection, schedule: Q01DX005 (ip), vehicle: Klucel (hydroxypropylcellulose) (HPC) 93 % of control

C[n+]1ccc2ccccc2c1C#N
inactive: dose: 12.5 mg/kg/injection, schedule: Q04DX003 (ip), vehicle: saline 106 % of control | dose: 25.0 mg/kg/injection, schedule: Q04DX003 (ip), vehicle: saline 98 % of control

NC(N)=N/N=C1\C(=O)N(c2cccc([N+](=O)[O-])c2)C(=O)C1C(=O)Nc1cccc([N+](=O)[O-])c1 (configuration not stated)
inactive: [11] 102 % of control | [12] 100 % of control

O=c1cc(CO)[nH]cc1O
inactive: [7] 99 % of control | [8] 123 % of control | dose: 120.0 mg/kg/injection, schedule: Q01DX009 (ip), vehicle: saline with Tween-80 87 % of control | [9] 122 % of control | [13] 112 % of control

Nc1cccc(OCCOc2cccc(S(=O)(=O)F)c2)c1
inactive: dose: 50.0 mg/kg/injection, schedule: Q01DX001 (ip), vehicle: saline with Tween-80 109 % of control | [11] 100 % of control | [12] 100 % of control

CCOC(=O)CN1CN(CCc2ccccc2)CC(C)(C)C1OCC (configuration not stated)
inactive: [10] 104 % of control | dose: 100.0 mg/kg/injection, schedule: Q01DX009 (ip), vehicle: saline with Tween-80 101 % of control | dose: 200.0 mg/kg/injection, schedule: Q01DX009 (ip), vehicle: saline with Tween-80 121 % of control | [13] 112 % of control

CC(=O)OC1(C)CC(C)C(=O)C(C(O)CC2CC(=O)NC(=O)C2)C1 (configuration not stated)
inactive: dose: 130.0 micrograms/kg/injection, schedule: Q01DX009 (ip), vehicle: saline 111 % of control | dose: 1300.0 micrograms/kg/injection, schedule: Q04DX003 (ip), vehicle: saline 120 % of control | dose: 2160.0 micrograms/kg/injection, schedule: Q04DX003 (ip), vehicle: saline 113 % of control | dose: 3600.0 micrograms/kg/injection, schedule: Q04DX003 (ip), vehicle: saline 113 % of control and 119 % of control | dose: 6000.0 micrograms/kg/injection, schedule: Q04DX003 (ip), vehicle: saline 118 % of control
